Measurements as given in PubChem BioAssay (NCI).
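The concentration for 50% growth inhibition is given as GI50. The concentration for full growth arrest is given as TGI.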

What was measured:
Experiment in all cases: NCI anticancer screen, dose series, 384-well format
RPMI-8226 leukemia = tested on: RPMI-8226 leukemia
LOX IMVI melanoma = tested on: LOX IMVI melanoma
OVCAR-4 ovarian = tested on: OVCAR-4 ovarian
BT-549 breast = tested on: BT-549 breast
MDA-MB-231 breast = tested on: MDA-MB-231 breast
NCI-H226 lung = tested on: NCI-H226 lung
MDA-MB-468 breast = tested on: MDA-MB-468 breast
SR leukemia = tested on: SR leukemia
HOP-92 NSCLC = tested on: HOP-92 NSCLC
IGROV1 ovarian = tested on: IGROV1 ovarian
K-562 leukemia = tested on: K-562 leukemia
HCT-116 colon = tested on: HCT-116 colon
NCI-H23 lung = tested on: NCI-H23 lung
U251 glioblastoma = tested on: U251 glioblastoma
COLO 205 colon = tested on: COLO 205 colon
SNB-19 CNS = tested on: SNB-19 CNS
CCRF-CEM leukemia = tested on: CCRF-CEM leukemia
NCI-H522 lung = tested on: NCI-H522 lung
MCF7 breast = tested on: MCF7 breast
KM12 colon = tested on: KM12 colon
SNB-75 CNS = tested on: SNB-75 CNS
SF-295 CNS = tested on: SF-295 CNS
HL-60(TB) leukemia = tested on: HL-60(TB) leukemia
UACC-257 melanoma = tested on: UACC-257 melanoma
EKVX NSCLC = tested on: EKVX NSCLC
SK-OV-3 ovarian = tested on: SK-OV-3 ovarian
SW-620 colon = tested on: SW-620 colon
PC-3 prostate = tested on: PC-3 prostate
TK-10 renal = tested on: TK-10 renal
T-47D breast = tested on: T-47D breast
HCT-15 colon = tested on: HCT-15 colon
SN12C renal = tested on: SN12C renal
CAKI-1 renal = tested on: CAKI-1 renal
OVCAR-3 ovarian = tested on: OVCAR-3 ovarian
NCI/ADR-RES ovarian = tested on: NCI/ADR-RES ovarian
HS 578T breast = tested on: HS 578T breast
HOP-62 NSCLC = tested on: HOP-62 NSCLC
OVCAR-8 ovarian = tested on: OVCAR-8 ovarian
SK-MEL-5 melanoma = tested on: SK-MEL-5 melanoma
OVCAR-5 ovarian = tested on: OVCAR-5 ovarian
M14 melanoma = tested on: M14 melanoma
SF-539 CNS = tested on: SF-539 CNS
NCI-H322M lung = tested on: NCI-H322M lung
HCC-2998 colon = tested on: HCC-2998 colon
MALME-3M melanoma = tested on: MALME-3M melanoma
MOLT-4 leukemia = tested on: MOLT-4 leukemia
HT29 colon = tested on: HT29 colon

**Q.** What does the source list for CC[C@H](NC(=O)[C@H](CS(=O)(=O)CC1CC1)N[C@@H](c1ccc(F)cc1)C(F)(F)F)C(=O)C(=O)NC1CC1?
**A.** GI50 (RPMI-8226 leukemia): 77.2 µM; TGI (RPMI-8226 leukemia): > 100 µM; GI50 (LOX IMVI melanoma): > 100 µM; TGI (LOX IMVI melanoma): > 100 µM; GI50 (OVCAR-4 ovarian): > 100 µM; TGI (OVCAR-4 ovarian): > 100 µM; GI50 (BT-549 breast): > 100 µM; TGI (BT-549 breast): > 100 µM; GI50 (MDA-MB-231 breast): > 100 µM; TGI (MDA-MB-231 breast): > 100 µM; GI50 (NCI-H226 lung): > 71.7 µM; TGI (NCI-H226 lung): > 100 µM; GI50 (MDA-MB-468 breast): 22.8 µM; TGI (MDA-MB-468 breast): 67.5 µM; GI50 (SR leukemia): 19.3 µM; TGI (SR leukemia): 74.5 µM; GI50 (HOP-92 NSCLC): > 100 µM; TGI (HOP-92 NSCLC): > 100 µM; GI50 (IGROV1 ovarian): > 100 µM; TGI (IGROV1 ovarian): > 100 µM; GI50 (K-562 leukemia): > 93.1 µM; TGI (K-562 leukemia): > 100 µM; GI50 (HCT-116 colon): > 100 µM; TGI (HCT-116 colon): > 100 µM; GI50 (NCI-H23 lung): > 100 µM; TGI (NCI-H23 lung): > 100 µM; GI50 (U251 glioblastoma): > 100 µM; TGI (U251 glioblastoma): > 100 µM; GI50 (COLO 205 colon): > 100 µM; TGI (COLO 205 colon): > 100 µM; GI50 (SNB-19 CNS): > 100 µM; TGI (SNB-19 CNS): > 100 µM; GI50 (CCRF-CEM leukemia): 60.9 µM; TGI (CCRF-CEM leukemia): > 100 µM; GI50 (NCI-H522 lung): > 100 µM; TGI (NCI-H522 lung): > 100 µM; GI50 (MCF7 breast): 97.5 µM; TGI (MCF7 breast): > 100 µM; GI50 (KM12 colon): > 100 µM; TGI (KM12 colon): > 100 µM; GI50 (SNB-75 CNS): > 89.5 µM; TGI (SNB-75 CNS): > 100 µM; GI50 (SF-295 CNS): > 100 µM; TGI (SF-295 CNS): > 100 µM; GI50 (HL-60(TB) leukemia): 84.2 µM; TGI (HL-60(TB) leukemia): > 100 µM; GI50 (UACC-257 melanoma): > 100 µM; TGI (UACC-257 melanoma): > 100 µM; GI50 (EKVX NSCLC): 98.7 µM; TGI (EKVX NSCLC): > 100 µM; GI50 (SK-OV-3 ovarian): > 100 µM; TGI (SK-OV-3 ovarian): > 100 µM; GI50 (SW-620 colon): > 100 µM; TGI (SW-620 colon): > 100 µM; GI50 (PC-3 prostate): > 100 µM; TGI (PC-3 prostate): > 100 µM; GI50 (TK-10 renal): > 100 µM; TGI (TK-10 renal): > 100 µM; GI50 (T-47D breast): > 59.9 µM; TGI (T-47D breast): > 100 µM; GI50 (HCT-15 colon): > 100 µM; TGI (HCT-15 colon): > 100 µM; GI50 (SN12C renal): > 100 µM; TGI (SN12C renal): > 100 µM; GI50 (CAKI-1 renal): > 100 µM; TGI (CAKI-1 renal): > 100 µM; GI50 (OVCAR-3 ovarian): > 100 µM; TGI (OVCAR-3 ovarian): > 100 µM; GI50 (NCI/ADR-RES ovarian): > 100 µM; TGI (NCI/ADR-RES ovarian): > 100 µM; GI50 (HS 578T breast): > 100 µM; TGI (HS 578T breast): > 100 µM; GI50 (HOP-62 NSCLC): 98.8 µM; TGI (HOP-62 NSCLC): > 100 µM; GI50 (OVCAR-8 ovarian): > 100 µM; TGI (OVCAR-8 ovarian): > 100 µM; GI50 (SK-MEL-5 melanoma): > 100 µM; TGI (SK-MEL-5 melanoma): > 100 µM; GI50 (OVCAR-5 ovarian): > 100 µM; TGI (OVCAR-5 ovarian): > 100 µM; GI50 (M14 melanoma): > 100 µM; TGI (M14 melanoma): > 100 µM; GI50 (SF-539 CNS): > 100 µM; TGI (SF-539 CNS): > 100 µM; GI50 (NCI-H322M lung): > 100 µM; TGI (NCI-H322M lung): > 100 µM; GI50 (HCC-2998 colon): > 100 µM; TGI (HCC-2998 colon): > 100 µM; GI50 (MALME-3M melanoma): > 100 µM; TGI (MALME-3M melanoma): > 100 µM; GI50 (MOLT-4 leukemia): 29.5 µM; TGI (MOLT-4 leukemia): > 100 µM; GI50 (HT29 colon): > 100 µM; TGI (HT29 colon): > 100 µM
